Source: patent publication EP3177293B1, “METHOD OF TREATING SKIN CONDITIONS” (Astrazeneca AB, priority 2014, dated 2015)
Read-outs that look alike come from different tables or passages of the source.

Key:
mouse DGAT1 = target: T1, mouse DGAT1 (Mus musculus, UniProt Q9Z2A7); assay: in vitro recombinant DGAT1 enzyme assay (mouse); format: biochemical
T1 sequence (Q9Z2A7 1-498): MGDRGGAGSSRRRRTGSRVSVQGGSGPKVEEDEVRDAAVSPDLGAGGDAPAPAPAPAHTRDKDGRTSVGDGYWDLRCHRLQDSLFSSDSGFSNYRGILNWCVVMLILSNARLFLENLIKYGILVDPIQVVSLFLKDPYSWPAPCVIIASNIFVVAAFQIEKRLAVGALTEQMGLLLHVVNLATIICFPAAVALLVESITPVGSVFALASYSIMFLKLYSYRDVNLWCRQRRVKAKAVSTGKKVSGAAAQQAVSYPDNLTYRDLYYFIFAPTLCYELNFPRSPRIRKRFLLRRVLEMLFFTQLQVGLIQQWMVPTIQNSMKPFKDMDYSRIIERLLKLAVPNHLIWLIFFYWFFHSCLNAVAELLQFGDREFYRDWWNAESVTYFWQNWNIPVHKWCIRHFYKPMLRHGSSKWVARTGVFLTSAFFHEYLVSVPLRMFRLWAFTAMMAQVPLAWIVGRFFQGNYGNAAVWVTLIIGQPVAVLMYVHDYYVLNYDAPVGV

dog DGAT1 = target: T2, dog DGAT1 (Canis lupus familiaris, UniProt A0A8I3NFS1); assay: in vitro recombinant DGAT1 enzyme assay (dog); format: biochemical
T2 sequence (A0A8I3NFS1 67-492): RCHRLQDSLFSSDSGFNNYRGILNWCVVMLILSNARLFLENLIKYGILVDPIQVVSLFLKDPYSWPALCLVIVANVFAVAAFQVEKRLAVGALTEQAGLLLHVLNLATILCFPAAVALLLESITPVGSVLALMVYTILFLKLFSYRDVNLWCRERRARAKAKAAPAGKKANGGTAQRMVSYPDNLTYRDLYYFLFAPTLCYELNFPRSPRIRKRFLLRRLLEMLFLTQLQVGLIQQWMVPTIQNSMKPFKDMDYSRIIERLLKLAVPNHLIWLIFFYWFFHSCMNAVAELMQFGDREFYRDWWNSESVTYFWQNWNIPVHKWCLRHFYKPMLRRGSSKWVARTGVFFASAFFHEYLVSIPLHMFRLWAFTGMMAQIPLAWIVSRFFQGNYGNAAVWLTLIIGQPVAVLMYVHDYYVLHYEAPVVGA

human DGAT1 = target: T3, human DGAT1 (Homo sapiens, UniProt O75907); assay: in vitro recombinant DGAT1 enzyme assay (human); format: biochemical
T3 sequence (O75907 1-488): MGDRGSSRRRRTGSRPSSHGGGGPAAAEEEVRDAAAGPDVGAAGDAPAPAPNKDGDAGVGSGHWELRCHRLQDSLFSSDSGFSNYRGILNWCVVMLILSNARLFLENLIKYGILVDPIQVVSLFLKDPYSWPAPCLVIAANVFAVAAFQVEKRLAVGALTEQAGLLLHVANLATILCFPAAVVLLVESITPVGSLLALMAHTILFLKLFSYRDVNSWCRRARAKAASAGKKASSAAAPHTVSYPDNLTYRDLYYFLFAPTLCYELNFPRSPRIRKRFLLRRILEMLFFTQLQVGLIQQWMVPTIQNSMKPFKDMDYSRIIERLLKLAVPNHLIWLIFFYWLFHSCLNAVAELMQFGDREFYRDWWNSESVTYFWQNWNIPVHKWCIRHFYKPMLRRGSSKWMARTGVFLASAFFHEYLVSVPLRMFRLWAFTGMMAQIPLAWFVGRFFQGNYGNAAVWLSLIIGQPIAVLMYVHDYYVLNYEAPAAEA

human ACAT2 = target: T4, human ACAT2 (Homo sapiens, UniProt O75908); assay: ACAT2 enzyme inhibition; format: biochemical
T4 sequence (O75908 1-522): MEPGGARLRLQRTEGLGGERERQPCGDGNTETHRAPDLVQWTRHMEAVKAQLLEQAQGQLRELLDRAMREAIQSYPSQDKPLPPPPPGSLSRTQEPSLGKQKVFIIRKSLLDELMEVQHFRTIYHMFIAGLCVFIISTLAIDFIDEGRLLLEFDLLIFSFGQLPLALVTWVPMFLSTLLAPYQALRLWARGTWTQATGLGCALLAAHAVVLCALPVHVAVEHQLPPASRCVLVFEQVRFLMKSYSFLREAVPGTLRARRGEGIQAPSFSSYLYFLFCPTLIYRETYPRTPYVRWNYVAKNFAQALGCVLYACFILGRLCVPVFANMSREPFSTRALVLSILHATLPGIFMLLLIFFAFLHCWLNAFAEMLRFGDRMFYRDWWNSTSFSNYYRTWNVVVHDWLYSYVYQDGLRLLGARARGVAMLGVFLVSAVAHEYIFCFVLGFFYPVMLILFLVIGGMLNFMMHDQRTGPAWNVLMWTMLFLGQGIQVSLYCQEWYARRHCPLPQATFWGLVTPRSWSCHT

human DGAT2 = target: T5, human DGAT2 (Homo sapiens, UniProt Q96PD7); assay: DGAT2 activity; format: biochemical
T5 sequence (Q96PD7 1-388): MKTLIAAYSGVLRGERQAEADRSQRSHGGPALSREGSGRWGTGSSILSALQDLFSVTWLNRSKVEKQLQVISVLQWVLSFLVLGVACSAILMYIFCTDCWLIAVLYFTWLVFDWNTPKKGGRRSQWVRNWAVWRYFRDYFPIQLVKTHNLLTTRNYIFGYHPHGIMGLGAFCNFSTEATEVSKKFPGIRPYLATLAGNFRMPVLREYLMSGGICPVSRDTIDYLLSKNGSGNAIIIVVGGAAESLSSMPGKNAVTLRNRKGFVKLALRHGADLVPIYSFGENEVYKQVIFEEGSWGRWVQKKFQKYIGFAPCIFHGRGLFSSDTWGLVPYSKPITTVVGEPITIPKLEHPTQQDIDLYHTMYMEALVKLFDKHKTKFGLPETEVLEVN

[1] = toxicokinetic analysis of plasma exposure in mice, oral dosing; format: in vivo, mice (Crl:CD-1(ICR)); details: for Cmax as multiple of mouse microsomal DGAT1 enzyme IC50 / Cmin as multiple of DGAT1 IC50: oral once daily
Description: (§1) Doses and frequency of dosing were selected following consideration of species specific tolerability and pharmacokinetic parameters. Doses predicted to result in exposures which were likely to cause maximum DGAT1 inhibition without resulting in intolerability were chosen as the highest dose level.
The mice were killed by administration of halothane.

sebaceous glands [2] = test system: sebaceous glands
Description: Up to 32 (16 male and 16 female) mice (Crl:CD-1(ICR)) per dose group were obtained from the AstraZeneca breeding unit (Alderley Park, Macclesfield, UK). The animals, aged 7-8 weeks, were allowed to acclimatise for at least one week, were multiple-housed, sexes separately, up to 5/cage. Water from the site drinking water supply and RM1 (E) SQC pelleted diet supplied by Special Diets Services Ltd., England, was freely available. Nesting material (Tapvei Aspen Chips, Tapvei small aspen bricks, Finland, sizzle nests and paper shavings, and polycarbonate tunnels, Datesand,UK) was provided. Animals were terminated for scheduled necropsy on the day after the final dose. The mice were killed by administration of halothane.
(§2) For pharmacokinetic analysis, blood samples were collected into lithium heparin tubes from animals on either the first or penultimate day of the study. Plasma was separated by centrifugation at 4°C and stored for analysis at -20°C. […] Exposure data are presented as FDM (free drug concentration in blood plasma required to inhibit the microsomal DGAT1 enzyme by 50%) and are mean data for each dose level. […] At the end of each experiment, animals were terminally anaesthetised and representative samples of skin (mammary gland region for mice, abdominal region for dogs) were taken at necropsy, placed in 10% buffered formalin and processed for histopathological assessment. Conventional processing into wax and haematoxylin and eosin staining of sections preceded their light microscopic examination.
(§3) Light microscopic examination and histology scoring was performed by a certified pathologist and findings were peer reviewed by a second pathologist. Each section of skin contained from 15 - 25 hair follicles in different stages of differentiation with associated sebaceous glands that were cut in multiple planes. […] Therefore, assessment of sebaceous cell/gland atrophy was based on their appearances irrespective of the stage of differentiation of the associated hair follicle in all instances.

[3] = toxicokinetic analysis of plasma exposure in dogs, oral dosing; format: in vivo, beagle dogs
Description: as §1

sebaceous glands [4] = test system: sebaceous glands; remark: listed apart in the source
Procedure: Up to 8 (4 male and 4 female) beagle dogs per treatment group were obtained from the AstraZeneca breeding unit (Alderley Park, Macclesfield, UK). […] All animals were observed daily for clinical signs of toxicity. Body weight and food consumption was measured daily prior to dosing. Animals were single-penned, with access to an exercise area with others of the same sex and group, for the major part of each day. Animals had free access to water from the site drinking water supply. A set weight of SDS Dog-D3 (E) SQC, supplied by Special Diet Services Ltd, England, was provided daily, in the afternoon, access being allowed for up to approximately 2 hours. Toys (e.g., bones) were provided for additional environmental enhancement. Animals were terminated for scheduled necropsy on the day after the final dose. The dogs were killed by intravenous administration of sodium pentobarbitone and then exsanguinated.
as §2, §3

skin = details: clinical trials of short duration (Denison et al. 2013); cited from earlier work
[5] = 1mg/kg/day dose group, 180 day study
[6] = 600 mg/kg/day dose group, 7 day study
[7] = mouse, 1 month and 6 month studies

Cc1nc(C)c(-c2ccc([C@H]3CC[C@H](CC(=O)O)CC3)cc2)nc1C(N)=O [2-((1R,4R)-4-(4-(6-carbamoyl-3,5-dimethylpyrazin-2-yl)phenyl)cyclohexyl)acetic acid]
IC50 (mouse DGAT1): ~100 nM | IC50 (dog DGAT1): ~60 nM | IC50 (human DGAT1): ~80 nM | IC50 (human ACAT2): > 35000 nM | activity against human DGAT2 (human DGAT2): No activity | Cmax as multiple of mouse microsomal DGAT1 enzyme IC50 [1, 5]: 4 x IC50 | Cmin as multiple of DGAT1 IC50 [1, 5]: 1 x IC50 | Cmax as multiple of mouse microsomal DGAT1 enzyme IC50 [1, 6]: 1581 x IC50 | Cmin as multiple of DGAT1 IC50 [1, 6]: 766 x IC50 | sex difference in exposure ([1]; male versus female mice): 1.5 - 3 x | exposure at Cmin at which additional skin findings occurred (sebaceous glands [2]; Crl:CD-1(ICR), mouse, in vivo, 6 months): ≥ 7 x FDM | skin photomicrograph appearance of sebaceous glands (Figure 5 B) (sebaceous glands [2]; male mouse, 300 mg/kg/day for 6 months): substantial atrophy of sebaceous glands with much reduced sebum and mild hyperkeratosis | reversibility of sebaceous gland atrophy (sebaceous glands [2]; mice, 4 week drug-free period after 1 month of treatment): complete reversibility | group mean severity of sebaceous gland atrophy (sebaceous glands [2]; mice, after 1 month (28 days) of dosing): minimal to mild | group mean severity of sebaceous gland atrophy (sebaceous glands [2]; mice, after 6 months (180 days) of dosing): minimal to moderate | sebaceous gland atrophy (sebaceous glands [2]; mice, high doses for up to 7 days): absent | duration of DGAT1 inhibition required for microscopical detection of sebaceous gland atrophy (sebaceous glands [2]; mouse): more than 7 days | skin photomicrograph appearance of sebaceous glands (Figure 1 B) (sebaceous glands [2]; mouse, 300 mg/kg/day for 28 days): severely atrophic sebaceous glands with substantially reduced sebum | skin photomicrograph appearance of sebaceous glands (Figure 1 C) (sebaceous glands [2]; mouse, 300 mg/kg/day for 28 days followed by drug free recovery period of 28 days): normal appearance of sebum filled sebaceous glands | exposure at Cmin with mild to moderate sebaceous gland atrophy (sebaceous glands [2]; [7]): 46 x FDM | exposure at Cmin with minimal to mild sebaceous gland atrophy (sebaceous glands [2]; [7]): 7 - 40 x FDM | exposure at Cmax at which additional skin findings occurred (sebaceous glands [2]; mouse, in vivo): at least 50 x FDM | histopathological findings in the skin (sebaceous glands [2]; mouse, in vivo): restricted to sebaceous gland atrophy only | significant increase in inflammation in the skin (sebaceous glands [2]; mouse, in vivo): not seen | skin findings associated with sebaceous gland atrophy (sebaceous glands [2]; mouse, in vivo): epidermal hyperplasia, occasional hair follicle atrophy, as well as in-life observation of hair-loss and skin lesions | tolerability (sebaceous glands [2]; mouse, in vivo): well tolerated | Cmax as multiple of dog microsomal DGAT1 enzyme IC50 ([3]; 4 mg/kg/day dose group, 3 month study): 10 x IC50 | Cmin as multiple of DGAT1 IC50 ([3]; 4 mg/kg/day dose group, 3 months study): 1 x IC50 | Cmin as multiple of DGAT1 IC50 ([3]; 1000 mg/kg/day dose group, 7 day study): 54 x IC50 | Cmax as multiple of dog microsomal DGAT1 enzyme IC50 ([3]; 1000 mg/kg/day dose group, 'in the same study' (3 month study as printed)): 292 x IC50 | duration of DGAT1 inhibition required for microscopical detection of sebaceous gland atrophy (sebaceous glands [4]; dog): more than 7 days | exposure at Cmin with mild to moderate sebaceous gland atrophy (sebaceous glands [4]; dog): > 36 x FDM | exposure at Cmin with minimal to mild sebaceous gland atrophy (sebaceous glands [4]; dog): 7-54 x FDM | skin photomicrograph appearance of sebaceous glands (Figure 6 B) (sebaceous glands [4]; dog, 100 mg/kg/day for 6 months): atrophic sebaceous glands which contain little sebum | additional skin changes (occasional hair follicle atrophy, hair-loss and skin lesions) (sebaceous glands [4]; dog, in vivo): not observed | hyperkeratosis of the epithelium covering the infundibula of hair follicles (sebaceous glands [4]; dog, in vivo): minimal hyperkeratosis | significant increase in inflammation in the skin (sebaceous glands [4]; dog, in vivo): not seen | tolerability (sebaceous glands [4]; dog, in vivo): well tolerated | sebaceous gland atrophy (sebaceous glands [4]; dogs dosed for up to 7 days): absent | reversibility of sebaceous gland atrophy (sebaceous glands [4]; dogs, 4 week drug-free period after 3 months of dosing): complete reversibility | group mean severity of sebaceous gland atrophy (sebaceous glands [4]; dogs, after 3 months (90 days) of dosing): minimal to moderate | group mean severity of sebaceous gland atrophy (sebaceous glands [4]; dogs, after 14 days of dosing): minimal to mild | group mean severity of sebaceous gland atrophy (sebaceous glands [4]; dogs, highest dose group after 6 months (180 days)): moderate | effects on the skin of healthy volunteers (skin): no effects
